Test results from ChEMBL document CHEMBL1127177, “(E) and (Z)5-fluoro olefin carbocyclic nucleosides: effect of olefin geometry on inhibition of s-adenosyl-l-homocysteine hydrolase” (Bioorg Med Chem Lett, 1993).

Columns and labels:
[1] = tested on: T-cell; test: Inhibition of T cell proliferation was determined using murine splenic mononuclear cells; type: functional, cell-based; settings: Mus musculus
[2] = target: T1, Adenosylhomocysteinase (Rattus norvegicus, UniProt P10760); test: Tested for binding affinity of compound against S-adenosyl-L-homocysteine hydrolase
T1 sequence (P10760 whole entry): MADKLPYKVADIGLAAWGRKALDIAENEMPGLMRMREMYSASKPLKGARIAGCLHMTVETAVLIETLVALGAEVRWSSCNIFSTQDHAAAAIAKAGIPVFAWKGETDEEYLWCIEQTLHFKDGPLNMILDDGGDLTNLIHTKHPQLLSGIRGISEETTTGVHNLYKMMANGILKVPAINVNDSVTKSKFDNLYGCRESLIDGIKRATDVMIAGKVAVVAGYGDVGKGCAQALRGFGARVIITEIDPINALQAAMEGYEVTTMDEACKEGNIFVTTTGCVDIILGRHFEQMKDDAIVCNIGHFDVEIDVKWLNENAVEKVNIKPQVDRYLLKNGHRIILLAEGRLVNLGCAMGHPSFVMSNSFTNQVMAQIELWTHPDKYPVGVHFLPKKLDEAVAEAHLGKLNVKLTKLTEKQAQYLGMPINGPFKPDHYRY

[3] = target: T2, Adenosylhomocysteinase (Rattus norvegicus) (UniProt P10760)
T2 sequence (whole entry): T1 sequence (P10760 whole entry)
Description: Tested for rate constant for inactivation of S-adenosyl-L-homocysteine hydrolase from rat

[4] = tested on: T-cell; test: Tested for inhibition of T cell proliferation; type: functional, cell-based; settings: Mus musculus

Ki [2] [µM]	K inact [3] [min⁻¹]	Compound	IC50 [1] [µM]	IC50 [4] [µM]
1.1	–	Nc1ncnc2c1ncn2C1C/C(=C/F)C(O)C1O (stereo not given)	6.7	–
6.9	0.18	Nc1ncnc2c1ncn2C1C/C(=C\F)C(O)C1O (stereo not given)	–	0.8
